Literature values, collected in patent publication US8163169B2, “Hydroconversion processes employing multi-metallic catalysts and method for making thereof” (Chevron U.S.A. Inc., priority 2007, dated 2012).

System: rats
Settings: single oral dose to rats

SMILES: O=CC(=O)O [glyoxylic]
- LD50: 3000 mg/kg
